US20030236212A1, “Functionalized long chain derivatives as acyl coenzyme-A mimics, compositions thereof, and methods of cholesterol management and related uses” (priority 2002, published 2003)
Like-named read-outs stand apart in the source and are kept apart here.

Tested on: obese female Zucker rats
Assay: Oral daily treatment of obese female Zucker rats for 14 days (body weight, serum lipids, glucose, insulin)
Type: in vivo, rat
Set-up: HDL-C / Glucose / Insulin / NEFA / BHA / TG / TC / Non HDL-C: unit not given here
Conditions: for change in vivo at 30 mg/kg/day / change in vivo at 30 mg/kg: 30 mg/kg/day; for change in vivo at 100 mg/kg/day / change in vivo at 100 mg/kg: 100 mg/kg/day
Protocol: The dosing vehicle was administered to control animals in parallel experiments.
Body weight was determined daily prior to dosing. Animals were allowed free access to rodent chow and water throughout the study. Blood glucose was determined after a 6-hour fast in the afternoon without anesthesia from a tail vein. Serum was also prepared from a blood sample subsequently obtained from the orbital venous plexus (with O2/CO2 anesthesia) prior to and after one week treatment and used lipid and insulin determinations. At two weeks, blood glucose was again determined after a 6-hour fast without anesthesia from a tail vein. Soon thereafter, animals were sacrificed by CO2 inhalation in the afternoon and cardiac blood serum was collected and assessed for various lipids and insulin.

[1] = obese female Zucker rats, oral gavage daily 14 days, 100 mg/kg
[2] = obese female Zucker rats, oral, 14 days, 5 mg/kg/day (Table 1)
[3] = Rattus norvegicus, 336 h, obese female Zucker rats, oral daily, fourteen days, read-out: % wt. gain
[4] = Rattus norvegicus, 336 h, obese female Zucker rats, oral daily, fourteen days, read-out: BHA, Percent Change from Pre-treatment
[5] = Rattus norvegicus, 336 h, obese female Zucker rats, oral daily, fourteen days, read-out: Glucose, Percent Change from Pre-treatment
[6] = Rattus norvegicus, 336 h, obese female Zucker rats, oral daily, fourteen days, read-out: HDL-C, Percent Change from Pre-treatment
[7] = Rattus norvegicus, 336 h, obese female Zucker rats, oral daily, fourteen days, read-out: Insulin, Percent Change from Pre-treatment
[8] = Rattus norvegicus, 336 h, obese female Zucker rats, oral daily, fourteen days, read-out: NEFA, Percent Change from Pre-treatment
[9] = Rattus norvegicus, 336 h, obese female Zucker rats, oral daily, fourteen days, read-out: Non HDL-C, Percent Change from Pre-treatment
[10] = Rattus norvegicus, 336 h, obese female Zucker rats, oral daily, fourteen days, read-out: TC, Percent Change from Pre-treatment
[11] = Rattus norvegicus, 336 h, obese female Zucker rats, oral daily, fourteen days, read-out: TG, Percent Change from Pre-treatment

## CN(CCOc1ccc(CC2SC(=O)NC2=O)cc1)c1ccccn1 (centres unmarked) [Compound 2, 5-{4-[2-(Methyl-pyridin-2-yl-amino)-ethoxy]-benzyl}-thiazolidine-2,4-dione, reference compound]
Fasted obese female Zucker rats, oral gavage daily 14 days, 100 mg/kg
  blood glucose levels: reduction
Fasted obese female Zucker rats, two weeks of treatment, 100 mg/kg
  serum insulin relative to pretreatment: reduced
[1]
  liver to body weight: slightly reduced
  weight gain, percent of initial weight after two weeks: greater than 15%
[2]
  BHA: 15.6 ± 0.6
  Glucose: −11.1 ± 4.5
  HDL-C: −4.6 ± 8.8
  Insulin: −53.3 ± 5.2
  NEFA: 0.034 ± 0.001
  Non HDL-C: −54.1 ± 5.6
  TC: −50.2 ± 1.8
  TG: 53 ± 14

## CC(C)(CCCCOCCCCC(C)(C)COP(=O)(O)O)COP(=O)(O)O.N.N.N.N [Compound A, Phosphoric acid mono-16-(5,5-dimethyl-6-phosphonooxyhexyloxy)-2,2-dimethylhexyl] ester, tetraammonium salt]
Rattus norvegicus, 336 h, obese female Zucker rats, oral daily, fourteen days, 10 mg/kg/day, read-out: % wt. gain
  change in vivo at 10 mg/kg/day: 9%
Rattus norvegicus, 336 h, obese female Zucker rats, oral daily, fourteen days, 10 mg/kg/day, read-out: BHA, Percent Change from Pre-treatment
  change in vivo at 10 mg/kg: 102%
Rattus norvegicus, 336 h, obese female Zucker rats, oral daily, fourteen days, 10 mg/kg/day, read-out: Glucose, Percent Change from Pre-treatment
  change in vivo at 10 mg/kg: -9%
Rattus norvegicus, 336 h, obese female Zucker rats, oral daily, fourteen days, 10 mg/kg/day, read-out: HDL-C, Percent Change from Pre-treatment
  change in vivo at 10 mg/kg: 179%
Rattus norvegicus, 336 h, obese female Zucker rats, oral daily, fourteen days, 10 mg/kg/day, read-out: Insulin, Percent Change from Pre-treatment
  change in vivo at 10 mg/kg: -7%
Rattus norvegicus, 336 h, obese female Zucker rats, oral daily, fourteen days, 10 mg/kg/day, read-out: NEFA, Percent Change from Pre-treatment
  change in vivo at 10 mg/kg: 14%
Rattus norvegicus, 336 h, obese female Zucker rats, oral daily, fourteen days, 10 mg/kg/day, read-out: Non HDL-C, Percent Change from Pre-treatment
  change in vivo at 10 mg/kg: 67%
Rattus norvegicus, 336 h, obese female Zucker rats, oral daily, fourteen days, 10 mg/kg/day, read-out: TC, Percent Change from Pre-treatment
  change in vivo at 10 mg/kg: 115%
Rattus norvegicus, 336 h, obese female Zucker rats, oral daily, fourteen days, 10 mg/kg/day, read-out: TG, Percent Change from Pre-treatment
  change in vivo at 10 mg/kg: 11%
[3]
  change in vivo at 30 mg/kg/day: 3%
  change in vivo at 100 mg/kg/day: 4%
[4]
  change in vivo at 30 mg/kg: 141%
  change in vivo at 100 mg/kg: 257%
[5]
  change in vivo at 30 mg/kg: 1%
  change in vivo at 100 mg/kg: 6%
[6]
  change in vivo at 30 mg/kg: 228%
  change in vivo at 100 mg/kg: 559%
[7]
  change in vivo at 30 mg/kg: -16%
  change in vivo at 100 mg/kg: 0%
[8]
  change in vivo at 30 mg/kg: -32%
  change in vivo at 100 mg/kg: -53%
[9]
  change in vivo at 30 mg/kg: 71%
  change in vivo at 100 mg/kg: 11%
[10]
  change in vivo at 30 mg/kg: 164%
  change in vivo at 100 mg/kg: 287%
[11]
  change in vivo at 30 mg/kg: -31%

## CC(C)(CCCCCCOCCCCCCC(C)(C)COP(=O)(O)O)COP(=O)(O)O [Compound C]
[3]
  change in vivo at 30 mg/kg/day: 13%
[4]
  change in vivo at 30 mg/kg: 123%
[5]
  change in vivo at 30 mg/kg: 9%
[6]
  change in vivo at 30 mg/kg: -19%
[7]
  change in vivo at 30 mg/kg: 11%
[8]
  change in vivo at 30 mg/kg: -33%
[9]
  change in vivo at 30 mg/kg: 52%
[10]
  change in vivo at 30 mg/kg: 6%
[11]
  change in vivo at 30 mg/kg: 22%

## CC(C)(CO)CCCCNCCCCC(C)(C)CO [Compound H, 6-(6-Hydroxy-5,5-dimethylhexylamino)-2,2-dimethylhexan-1-ol]
Rattus norvegicus, 336 h, obese female Zucker rats, oral daily, fourteen days, 53 mg/kg/day, read-out: % wt. gain
  change in vivo at 53 mg/kg/day: 16%
Rattus norvegicus, 336 h, obese female Zucker rats, oral daily, fourteen days, 53 mg/kg/day, read-out: BHA, Percent Change from Pre-treatment
  change in vivo at 53 mg/kg: 48%
Rattus norvegicus, 336 h, obese female Zucker rats, oral daily, fourteen days, 53 mg/kg/day, read-out: Glucose, Percent Change from Pre-treatment
  change in vivo at 53 mg/kg: -23%
Rattus norvegicus, 336 h, obese female Zucker rats, oral daily, fourteen days, 53 mg/kg/day, read-out: HDL-C, Percent Change from Pre-treatment
  change in vivo at 53 mg/kg: 16%
Rattus norvegicus, 336 h, obese female Zucker rats, oral daily, fourteen days, 53 mg/kg/day, read-out: Insulin, Percent Change from Pre-treatment
  change in vivo at 53 mg/kg: -49%
Rattus norvegicus, 336 h, obese female Zucker rats, oral daily, fourteen days, 53 mg/kg/day, read-out: NEFA, Percent Change from Pre-treatment
  change in vivo at 53 mg/kg: -55%
Rattus norvegicus, 336 h, obese female Zucker rats, oral daily, fourteen days, 53 mg/kg/day, read-out: Non HDL-C, Percent Change from Pre-treatment
  change in vivo at 53 mg/kg: -10%
Rattus norvegicus, 336 h, obese female Zucker rats, oral daily, fourteen days, 53 mg/kg/day, read-out: TC, Percent Change from Pre-treatment
  change in vivo at 53 mg/kg: 5%
Rattus norvegicus, 336 h, obese female Zucker rats, oral daily, fourteen days, 53 mg/kg/day, read-out: TG, Percent Change from Pre-treatment
  change in vivo at 53 mg/kg: -32%

## CC(C)(CO)CCCCNC(=O)CCCCC(C)(C)CO [Compound J, 7-Hydroxy-6,6-dimethylheptanoic acid (6-hydroxy-5,5-dimethylhexyl)-amide]
[3]
  change in vivo at 30 mg/kg/day: 11%
[4]
  change in vivo at 30 mg/kg: 21%
[5]
  change in vivo at 30 mg/kg: 18%
[6]
  change in vivo at 30 mg/kg: 20%
[7]
  change in vivo at 30 mg/kg: -41%
[8]
  change in vivo at 30 mg/kg: -38%
[9]
  change in vivo at 30 mg/kg: -7%
[10]
  change in vivo at 30 mg/kg: 9%
[11]
  change in vivo at 30 mg/kg: -10%

## CC(C)(CO)CCCCOC(=O)CCCCC(C)(C)CO [Compound K, 7-Hydroxy-6,6-dimethylheptanoic acid 6-hydroxy-5,5-dimethylhexyl ester]
[3]
  change in vivo at 100 mg/kg/day: 11%
[4]
  change in vivo at 100 mg/kg: 103%
[5]
  change in vivo at 100 mg/kg: -21%
[6]
  change in vivo at 100 mg/kg: 23%
[7]
  change in vivo at 100 mg/kg: 0%
[8]
  change in vivo at 100 mg/kg: 43%
[9]
  change in vivo at 100 mg/kg: -5%
[10]
  change in vivo at 100 mg/kg: 12%
[11]
  change in vivo at 100 mg/kg: 7%

## CC(C)(CO)CCCCOP(=O)(O)OCCCCC(C)(C)CO [Compound L, phosphoric acid bis(5,5-dimethyl-6-hydroxy-hexyl)ester]
Rattus norvegicus, 336 h, obese female Zucker rats, oral daily, fourteen days, 80 mg/kg/day, read-out: % wt. gain
  change in vivo at 80 mg/kg/day: 0%
Rattus norvegicus, 336 h, obese female Zucker rats, oral daily, fourteen days, 80 mg/kg/day, read-out: BHA, Percent Change from Pre-treatment
  change in vivo at 80 mg/kg: 575%
Rattus norvegicus, 336 h, obese female Zucker rats, oral daily, fourteen days, 80 mg/kg/day, read-out: Glucose, Percent Change from Pre-treatment
  change in vivo at 80 mg/kg: 9%
Rattus norvegicus, 336 h, obese female Zucker rats, oral daily, fourteen days, 80 mg/kg/day, read-out: HDL-C, Percent Change from Pre-treatment
  change in vivo at 80 mg/kg: 8%
Rattus norvegicus, 336 h, obese female Zucker rats, oral daily, fourteen days, 80 mg/kg/day, read-out: Insulin, Percent Change from Pre-treatment
  change in vivo at 80 mg/kg: 21%
Rattus norvegicus, 336 h, obese female Zucker rats, oral daily, fourteen days, 80 mg/kg/day, read-out: NEFA, Percent Change from Pre-treatment
  change in vivo at 80 mg/kg: 62%
Rattus norvegicus, 336 h, obese female Zucker rats, oral daily, fourteen days, 80 mg/kg/day, read-out: Non HDL-C, Percent Change from Pre-treatment
  change in vivo at 80 mg/kg: -17%
Rattus norvegicus, 336 h, obese female Zucker rats, oral daily, fourteen days, 80 mg/kg/day, read-out: TC, Percent Change from Pre-treatment
  change in vivo at 80 mg/kg: -4%
Rattus norvegicus, 336 h, obese female Zucker rats, oral daily, fourteen days, 80 mg/kg/day, read-out: TG, Percent Change from Pre-treatment
  change in vivo at 80 mg/kg: -13%

## CC(C)(CO)CCCCNC(=O)OCCCCC(C)(C)CO [Compound M, (6-Hydroxy-5,5-dimethylhexyl)-carbamic acid 6-hydroxy-5,5-dimethylhexyl ester]
[3]
  change in vivo at 100 mg/kg/day: 20%
[4]
  change in vivo at 100 mg/kg: 145%
[5]
  change in vivo at 100 mg/kg: 2%
[6]
  change in vivo at 100 mg/kg: 65%
[7]
  change in vivo at 100 mg/kg: 26%
[8]
  change in vivo at 100 mg/kg: -53%
[9]
  change in vivo at 100 mg/kg: 84%
[10]
  change in vivo at 100 mg/kg: 70%
[11]
  change in vivo at 100 mg/kg: -4%
